molecular target: T1, Mucosa-associated lymphoid tissue lymphoma translocation protein 1 (Homo sapiens, UniProt Q9UDY8); assay: MALT-1 Inhibition Assay
T1 sequence (Q9UDY8 whole entry): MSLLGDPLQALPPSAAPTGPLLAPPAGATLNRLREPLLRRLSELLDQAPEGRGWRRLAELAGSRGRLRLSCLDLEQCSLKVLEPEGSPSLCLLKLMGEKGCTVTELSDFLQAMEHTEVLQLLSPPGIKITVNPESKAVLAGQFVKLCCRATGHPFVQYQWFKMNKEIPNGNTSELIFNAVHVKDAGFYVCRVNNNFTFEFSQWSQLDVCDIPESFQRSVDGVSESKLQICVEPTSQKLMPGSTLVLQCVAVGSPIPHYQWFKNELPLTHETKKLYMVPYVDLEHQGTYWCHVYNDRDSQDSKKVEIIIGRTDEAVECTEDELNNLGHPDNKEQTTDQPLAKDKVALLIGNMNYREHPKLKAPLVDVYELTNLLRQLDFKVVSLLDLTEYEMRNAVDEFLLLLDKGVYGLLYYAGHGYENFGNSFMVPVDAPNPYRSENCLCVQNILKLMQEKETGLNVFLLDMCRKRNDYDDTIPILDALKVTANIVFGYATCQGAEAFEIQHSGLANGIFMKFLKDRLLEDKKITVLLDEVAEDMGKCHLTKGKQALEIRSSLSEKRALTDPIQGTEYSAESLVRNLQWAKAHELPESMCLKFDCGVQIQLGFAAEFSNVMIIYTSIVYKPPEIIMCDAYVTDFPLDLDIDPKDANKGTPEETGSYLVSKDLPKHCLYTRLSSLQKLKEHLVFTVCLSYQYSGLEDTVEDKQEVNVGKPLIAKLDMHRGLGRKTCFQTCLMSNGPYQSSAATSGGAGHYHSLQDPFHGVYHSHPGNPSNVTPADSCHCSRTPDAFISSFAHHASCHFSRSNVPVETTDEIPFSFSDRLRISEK
Method: MALT-1 paracaspase activity was measured using the fluorogenic substrate Ac-LRSR-Rh110-DP (purchased from Biosantan GmbH). Proteolytic cleavage of the peptide—rhodamine conjugate results in an increase of rhodamine fluorescence which is inhibited by test compounds. Test compounds were diluted in DMSO in a series of 10 semi-log step doses, 15 nL of each compound dose were dispensed in 384 well polypropylene plates (HiBase non-binding, Greiner Bio-One cat #784900). All other assay components were diluted to appropriate working concentrations in assay buffer composed of: 200 mM Tris-HCl (pH 7.5; Sigma-Aldrich cat #T2663-1L), 0.1 mM EGTA (Sigma-Aldrich cat #E3889-10G), 0.05% CHAPS—Sigma-Aldrich cat #C9426-1G), 1 mM TCEP (Sigma-Aldrich cat #646547-10×1 mL), 0.8 M sodium citrate (Sigma-Aldrich cat #S1804-500G). Recombinant human MALT-1 (amino acids 340-824, accession NP_006776.1) was added to compound doses and equilibrated for 40 minutes at rt. The reaction was initiated by addition of substrate. Final concentrations of MALT-1 and substrate were 3 nM and 10 μM respectively. Reactions were incubated in the dark for 60 minutes at 25° C. Fluorescence was measured in a PHERAstar FSX plate reader (BMG LABTECH) with optical setup for excitation at 485 nm and emission at 520 nm, focal height of 11.8 mm, 20 flashes, gain 300. Percent inhibition values were calculated from relative fluorescence units at different doses and fitted to a 4-parameter logistic curve to determine IC50 values.

IC50 | Compound
39 nM | C[C@H]1CCN(c2ccc([C@H](N(C)C(=O)[C@H]3CC[S@](=N)(=O)CC3)C(F)(F)F)cc2)c2cnc3cc(F)nn3c21 (relative stereo) [US20250051327, Reference CPD0074553]
52 nM | CN(C(=O)[C@H]1CC[S@](=N)(=O)CC1)[C@@H](c1ccc(N2CC(C)(C)Cc3c2cnc2cc(Cl)nn32)cc1)C(F)(F)F [US20250051327, Reference CPD0073497]
53 nM | CN(C(=O)C1CCS(=O)(=O)CC1)[C@@H](c1ccc(N2CC[C@@]3(CCOC3)c3c2cnc2cc(Cl)nn32)cc1)C(F)(F)F [US20250051327, Reference CPD0073762]
57 nM | CN(C(=O)C1CCS(=O)(=O)CC1)[C@@H](c1ccc(N2CC[C@]3(CCOC3)c3c2cnc2cc(Cl)nn32)cc1)C(F)(F)F [US20250051327, Reference CPD0073763]
112 nM | CN(C(=O)[C@H]1CS(=O)(=O)CC12COC2)[C@@H](c1ccc(N2CCCc3c2cnc2cc(Cl)nn32)cc1)C(F)(F)F [US20250051327, Reference CPD0073975]

The remaining lines, values behind:

Compound | IC50
CO[C@@H](C)c1c(Nc2ccc([C@H](N(C)C(=O)CN3CCN(C)CC3)C(F)(F)F)cc2)cnn2cc(Cl)nc12 [US20250051327, Reference CPD0084933] | 137 nM
COc1ccc2ncc(Nc3ccc([C@H](N(C)C(=O)C4CCN(C(C)=O)CC4)C(F)(F)F)cc3)c([C@H](C)OC)c2n1 (relative stereo) [US20250051327, Reference CPD0074559] | 153 nM
COc1ccc2ncc(Nc3ccc([C@H](N(C)C(=O)C4CCS(=O)(=O)CC4)C(F)(F)F)cc3)c([C@@H]3CCOC3)c2n1 [US20250051327, Reference CPD0074040] | 83 nM
CO[C@@H](C)c1c(Nc2ccc([C@H](N(C)C(=O)[C@@H]3CCC(=O)N3)C(F)(F)F)cc2)cnn2cc(Cl)nc12 [US20250051327, Reference CPD0082470] | 45 nM
CO[C@@H](C)c1c(Nc2ccc([C@H](N(C)C(=O)[C@@H]3CCC(=O)NC3)C(F)(F)F)cc2)cnn2cc(Cl)nc12 (relative stereo) [US20250051327, Reference CPD0082472] | 41 nM
COc1ccc2ncc(Nc3ccc([C@H](N(C)C(=O)[C@@H]4CCC(=O)N4)C(F)(F)F)cc3)c([C@H](C)OC)c2n1 (relative stereo) [US20250051327, Reference CPD0075580] | 47 nM
